In US11666577B2 (National Institute of Biological Sciences, Beijing, priority 2018, dated 2023) one finds EC50 data, which are given here for 46 compounds.

Each structure is given as a SMILES string.

The first assay concerns HT-29 cells. In words: Necroptosis assay (TNF-α/Smac mimetic/z-VAD, TSZ-induced) in HT-29 cells. Format: cell-based, human. As to conditions: Homo sapiens; Series 1 (Table 1) compounds 1-146; HT-29 cells, TNF-α/Smac mimetic/z-VAD, 24 hrs, cell viability by ATP level; read-out: Series 1 compound necroptosis activity. The gist of the method: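 HT-29 cells were challenged with 20 ng/ml TNF-α, 100 nM Smac mimetic and 20 mM z-VAD while compound was added at the same time (library screen at 10 mM). After 24 h, viability was read as ATP luminescence (CellTiter-Glo) and normalized to DMSO-treated cells; values are means ± SD of duplicates.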
For the compound `Cn1c(=O)[nH]c2nc(S(C)(=O)=O)n(C)c2c1=O` [Compound 99, 1,7-dimethyl-8-(methylsulfonyl)-1H-purine-2,6(3H,7H)-dione], the EC50 lay within 1 to 100 µM. The same measure, in the same setting: with `CCn1c(S(C)(=O)=O)nc2c1c(=O)n(C)c(=O)n2C` [Compound 74, 7-ethyl-1,3-dimethyl-8-(methylsulfonyl)-1H-purine-2,6(3H,7H)-dione] the figure was 1 to 10 µM; with `CCn1c(=O)n(C)c(=O)c2c1nc(S(C)(=O)=O)n2C` [Compound 100, 3-ethyl-1,7-dimethyl-8-(methylsulfonyl)-1H-purine-2,6(3H,7H)-dione], 1 to 100 µM. Same read-out and setting: with `Cn1c(=O)c2c(nc(S(=O)(=O)CC3CC3)n2C)n(C)c1=O` [Compound 13, 8-(cyclopropylmethylsulfonyl)-1,3,7-trimethyl-1H-purine-2,6(3H,7H)-dione] the figure was 1 to 100 µM; with `CCCS(=O)(=O)c1nc2c(c(=O)n(C)c(=O)n2C)n1C` [Compound 10, 1,3,7-trimethyl-8-(propylsulfonyl)-1H-purine-2,6(3H,7H)-dione], 1 to 100 µM.

The assay is the same for the next values; noted with them: Homo sapiens; Series 2 (Table 2) compounds; HT-29 necroptosis assay; read-out: Series 2 compound necroptosis activity.
Regarding `Cn1c(=O)c2c(nc(S(C)(=O)=O)n2C)n(CC#Cc2cc(NC(=O)C3CC3)cc(NC(=O)C3CC3)c2)c1=O` [Compound 27], the EC50 fell in the range of 0.001 to 0.1 µM.

Turning to `Cn1c(=O)c2c(nc(S(C)(=O)=O)n2C)n(CC#Cc2cc(NC(=O)C3CC3)nc(C(F)(F)F)c2)c1=O` [Compound 43], the EC50 is 0.001 to 0.1 µM.

In the case of `Cn1c(=O)c2c(nc(S(C)(=O)=O)n2C)n(CC#Cc2cccc(NC(=O)CN3CCOCC3)c2)c1=O` [Compound 17], the EC50 lay in the range of 0.001 to 0.1 µM. On the same count and under the same terms, with `CCS(=O)(=O)c1nc2c(c(=O)n(C)c(=O)n2CC#Cc2cc(NC(=O)C3CC3)cc(NC(=O)C3CC3)c2)n1C` [Compound 50] the figure was 0.001 to 0.1 µM.

In the case of `COCCOCCNc1cccc(C#CCn2c(=O)n(C)c(=O)c3c2nc(S(C)(=O)=O)n3C)c1` [Compound 12], the EC50 was in the range of 0.001 to 0.1 µM. Consider `Cn1c(=O)c2c(nc(S(C)(=O)=O)n2C)n(CC#Cc2cc(NC(=O)CN3CCOCC3)cc(NC(=O)C3CC3)c2)c1=O` [Compound 36], for which the EC50 is 0.001 to 0.1 µM. On the same count and under the same terms, with `Cn1c(=O)c2c(nc(S(=O)(=O)NCc3ccccc3)n2C)n(C)c1=O` [Compound 55] the figure was 10 to 100 µM. The same measure, in the same setting: with `COc1cc(C#CCn2c(=O)n(C)c(=O)c3c2nc(S(C)(=O)=O)n3C)cc(NCCN2CCOCC2)c1` [Compound 21] the figure was 0.001 to 0.1 µM. On the same count and under the same terms, with `Cn1c(=O)c2c(nc(S(=O)(=O)CC3CC3)n2C)n(CC#Cc2cc(NC(=O)C3CC3)cc(C(F)(F)F)c2)c1=O` [Compound 46] the figure was 0.1 to 10 µM.

Staying with this assay, now noted: Series 1 (Table 1) compounds 1-146; HT-29 cells, TNF-α/Smac mimetic/z-VAD, 24 hrs, cell viability by ATP level; read-out: Series 1 compound necroptosis activity.
On to `Cn1c(=O)c2c(nc(S(=O)(=O)Cc3cc[n+]([O-])cc3)n2C)n(C)c1=O` [Compound 53, 4-((1,3,7-trimethyl-2,6-dioxo-2,3,6,7-tetrahydro-1H-purin-8-ylsulfonyl)methyl)pyridine 1-oxide], for which the EC50 lay in the range of 1 to 1000 µM. Same read-out and setting: with `CCOc1ccc(OC)cc1CS(=O)(=O)c1nc2c(c(=O)n(C)c(=O)n2C)n1C` [Compound 65, 8-(2-ethoxy-5-methoxybenzylsulfonyl)-1,3,7-trimethyl-1H-purine-2,6(3H,7H)-dione] the figure was 1 to 1000 µM; with `Cn1c(=O)c2c(nc(S(=O)(=O)Cc3ccc(C#N)cc3)n2C)n(C)c1=O` [Compound 44, 4-((1,3,7-trimethyl-2,6-dioxo-2,3,6,7-tetrahydro-1H-purin-8-ylsulfonyl)methyl)benzonitrile], 1 to 1000 µM; with `Cn1c(S(C)(=O)=O)nc2c1c(=O)n(CC1CC1)c(=O)n2C` [Compound 91, 1-(cyclopropylmethyl)-3,7-dimethyl-8-(methylsulfonyl)-1H-purine-2,6(3H,7H)-dione], 1 to 1000 µM. Regarding `CCC[S+]([O-])c1nc2c(c(=O)n(C)c(=O)n2C)n1CC` (stereo not shown) [Compound 79, 7-ethyl-1,3-dimethyl-8-(propylsulfinyl)-1H-purine-2,6(3H,7H)-dione], the EC50 was 1 to 1000 µM. On the same count and under the same terms, with `Cn1c(=O)c2c(nc(S(=O)(=O)Cc3cccc(C4(C(F)(F)F)N=N4)c3)n2C)n(C)c1=O` [Compound 40, 1,3,7-trimethyl-8-(3-(3-(trifluoromethyl)-3H-diazirin-3-yl)benzylsulfonyl)-1H-purine-2,6(3H,7H)-dione] the figure was 1 to 1000 µM.

For the compound `Cn1c(=O)c2c(nc(S(=O)(=O)Cc3cccc[n+]3[O-])n2C)n(C)c1=O` [Compound 49, 2-((1,3,7-trimethyl-2,6-dioxo-2,3,6,7-tetrahydro-1H-purin-8-ylsulfonyl)methyl)pyridine 1-oxide], the EC50 was 1 to 1000 µM. Still for that read-out and setting: with `Cn1c(=O)c2c(nc(S(=O)(=O)Cc3cccnc3)n2C)n(C)c1=O` [Compound 50, 1,3,7-trimethyl-8-(pyridin-3-ylmethylsulfonyl)-1H-purine-2,6(3H,7H)-dione] the figure was 1 to 1000 µM; with `CCSc1nc2c(c(=O)n(C)c(=O)n2C)n1CC` [Compound 75, 7-ethyl-8-(ethylthio)-1,3-dimethyl-1H-purine-2,6(3H,7H)-dione], 1 to 1000 µM; with `CCn1c(S(=O)(=O)CC)nc2c1c(=O)n(C)c(=O)n2C` [Compound 77, 7-ethyl-8-(ethylsulfonyl)-1,3-dimethyl-1H-purine-2,6(3H,7H)-dione], 1 to 1000 µM. For the compound `Cn1c(=O)c2c(nc(S(=O)(=O)Cc3ccc4ccccc4c3)n2C)n(C)c1=O` [Compound 23, 1,3,7-trimethyl-8-(naphthalen-2-ylmethylsulfonyl)-1H-purine-2,6(3H,7H)-dione], the EC50 was in the range of 1 to 1000 µM. Still for that read-out and setting: with `Cn1c(=O)c2c(nc(S(=O)(=O)Cc3ccccc3Br)n2C)n(C)c1=O` [Compound 32, 8-(2-bromobenzylsulfonyl)-1,3,7-trimethyl-1H-purine-2,6(3H,7H)-dione] the figure was 1 to 1000 µM. Still for that read-out and setting: with `Cn1c(=O)c2c(nc(S(C)(=O)=O)n2CC(N)=O)n(C)c1=O` [Compound 86, 2-(1,3-dimethyl-8-(methylsulfonyl)-2,6-dioxo-2,3-dihydro-1H-purin-7(6H)-yl)acetamide] the figure was 1 to 1000 µM; with `CCn1c(=O)c2c(nc(S(C)(=O)=O)n2C)n(C)c1=O` [Compound 89, ethyl-3,7-dimethyl-8-(methylsulfonyl)-1H-purine-2,6(3H,7H)-dione], 1 to 1000 µM. Take `Cn1c(=O)c2nc(S(C)(=O)=O)n(C)c2n(C)c1=O` [Compound 146, 1,3,9-trimethyl-8-(methylsulfonyl)-3,9-dihydro-1H-purine-2,6-dione]: the EC50 was in the range of 1 to 1000 µM.

In the case of `Cn1c(=O)c2c(nc(S(=O)(=O)Cc3cccc(Cl)c3Cl)n2C)n(C)c1=O` [Compound 54, 8-(2,3-dichlorobenzylsulfonyl)-1,3,7-trimethyl-1H-purine-2,6(3H,7H)-dione], the EC50 was in the range of 1 to 1000 µM. On the same count and under the same terms, with `Cn1c(=O)c2c(nc(S(=O)(=O)Cc3cccc4ccccc34)n2C)n(C)c1=O` [Compound 24, 1,3,7-trimethyl-8-(naphthalen-1-ylmethylsulfonyl)-1H-purine-2,6(3H,7H)-dione] the figure was 1 to 1000 µM; with `Cn1c(=O)c2c(nc(S(=O)(=O)Cc3ccccc3C#N)n2C)n(C)c1=O` [Compound 42, 2-((1,3,7-trimethyl-2,6-dioxo-2,3,6,7-tetrahydro-1H-purin-8-ylsulfonyl)methyl)benzonitrile], 1 to 1000 µM; with `COc1cc(CS(=O)(=O)c2nc3c(c(=O)n(C)c(=O)n3C)n2C)c(OC)cc1F` [Compound 71, 8-(4-fluoro-2,5-dimethoxybenzylsulfonyl)-1,3,7-trimethyl-1H-purine-2,6(3H,7H)-dione], 1 to 1000 µM. Still for that read-out and setting: with `Cn1c(=O)c2c(nc(S(=O)(=O)Cc3ccccc3[N+](=O)[O-])n2C)n(C)c1=O` [Compound 38, 1,3,7-trimethyl-8-(2-nitrobenzylsulfonyl)-1H-purine-2,6(3H,7H)-dione] the figure was 1 to 1000 µM.

The same assay, now with this note: Series 1 (Table 1) compounds 147-176; activity extrapolated; read-out: Series 1 compound necroptosis activity (extrapolated).
On to `CNS(=O)(=O)c1nc2c(c(=O)n(C)c(=O)n2CC#Cc2cccc(O)c2)n1C` [Compound 157], for which the EC50 is 1 to 1000 µM. On the same count and under the same terms, with `COCCOCCS(=O)(=O)c1nc2c(c(=O)n(C)c(=O)n2CC#Cc2cccc(O)c2)n1C` [Compound 154] the figure was 1 to 1000 µM; with `Cn1c(=O)c2c(nc(S(N)(=O)=O)n2C)n(CC#Cc2cccc(O)c2)c1=O` [Compound 156], 1 to 1000 µM; with `CCCS(=O)(=O)c1nc2c(c(=O)n(C)c(=O)n2Cc2ccc(-c3cccc(NCC)c3)s2)n1C` [Compound 176], 1 to 1000 µM. The same measure, in the same setting: with `Cn1c(=O)c2c(nc(S(C)(=O)=O)n2C)n(CC#CC2CCCNC2)c1=O` (stereo not shown) [Compound 167] the figure was 1 to 1000 µM; with `Cn1c(=O)c2c(nc(S(C)(=O)=O)n2C)n(CC#Cc2cccc(NCc3ccccc3)c2)c1=O` [Compound 166], 1 to 1000 µM; with `CNC/C=C/c1ccc(Cn2c(=O)n(C)c(=O)c3c2nc(S(=O)(=O)CC2CC2)n3C)s1` [Compound 173], 1 to 1000 µM. Still for that read-out and setting: with `Cn1c(=O)c2c(nc(S(C)(=O)=O)n2C)n(CC#Cc2ccc(=O)[nH]c2)c1=O` [Compound 165] the figure was 1 to 1000 µM; with `Cn1c(=O)c2c(nc(S(=O)(=O)CCOCCO)n2C)n(CC#Cc2cccc(O)c2)c1=O` [Compound 153], 1 to 1000 µM. For the compound `CN(C)CCS(=O)(=O)c1nc2c(c(=O)n(C)c(=O)n2CC#Cc2cccc(O)c2)n1C` [Compound 152], the EC50 is 1 to 1000 µM. Still for that read-out and setting: with `Cn1c(=O)c2c(nc(S(C)(=O)=O)n2C)n(CC#Cc2cccc3[nH]ccc23)c1=O` [Compound 169] the figure was 1 to 1000 µM.

The assay is the same for the next values; noted with them: Series 1 (Table 1) compounds; HT-29 cells, TNF-α/Smac mimetic/z-VAD, 24 hrs, cell viability by ATP level; read-out: Series 1 compound necroptosis activity.
Regarding `Cn1c(=O)c2c(nc(S(=O)(=O)CC3CC3)n2C)n(CC#Cc2cccc(N)c2)c1=O` [Compound 124, 3-(3-(3-aminophenyl)prop-2-yn-1-yl)-8-((cyclopropylmethyl)sulfonyl)-1,7-dimethyl-3,7-dihydro-1H-purine-2,6-dione], the EC50 fell in the range of 0.001 to 1 µM.
